Laboratory results: ChEMBL document CHEMBL3763124, “N-Benzylbenzamides: A Novel Merged Scaffold for Orally Available Dual Soluble Epoxide Hydrolase/Peroxisome Proliferator-Activated Receptor γ Modulators” (J Med Chem, 2016)
In brackets after ≈: the same amount, converted by molar mass. Activity calls are given as the source filed them. No cut-off for these calls is given here.

Columns and labels:
[1] = target: T1, Peroxisome proliferator-activated receptor alpha (Homo sapiens) (UniProt Q07869); assay: Transactivation of human PPARalpha expressed in African green monkey COS7 cells at 10 uM incubated overnight by dual-glo luciferase reporter assay; assay type: cell-based; conditions: COS-7
T1 sequence (whole entry): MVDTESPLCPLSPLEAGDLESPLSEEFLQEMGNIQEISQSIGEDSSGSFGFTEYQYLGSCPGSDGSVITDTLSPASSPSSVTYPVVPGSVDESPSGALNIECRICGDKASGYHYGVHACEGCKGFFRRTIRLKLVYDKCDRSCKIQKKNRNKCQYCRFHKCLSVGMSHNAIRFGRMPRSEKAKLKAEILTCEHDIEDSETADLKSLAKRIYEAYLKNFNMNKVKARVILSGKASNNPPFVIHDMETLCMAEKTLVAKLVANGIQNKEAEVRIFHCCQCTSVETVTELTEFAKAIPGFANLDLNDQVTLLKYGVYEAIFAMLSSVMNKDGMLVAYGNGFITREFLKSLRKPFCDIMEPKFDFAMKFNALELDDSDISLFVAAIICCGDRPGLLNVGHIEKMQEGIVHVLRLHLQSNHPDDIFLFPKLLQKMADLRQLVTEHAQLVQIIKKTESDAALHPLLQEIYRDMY

[2] = target: T2, Bifunctional epoxide hydrolase 2 (Homo sapiens, UniProt P34913); assay: Inhibition of human recombinant sEH using PHOME as substrate preincubated for 30 mins followed by substrate addition measured for 30 mins by fluorescence-based assay
T2 sequence (P34913 whole entry): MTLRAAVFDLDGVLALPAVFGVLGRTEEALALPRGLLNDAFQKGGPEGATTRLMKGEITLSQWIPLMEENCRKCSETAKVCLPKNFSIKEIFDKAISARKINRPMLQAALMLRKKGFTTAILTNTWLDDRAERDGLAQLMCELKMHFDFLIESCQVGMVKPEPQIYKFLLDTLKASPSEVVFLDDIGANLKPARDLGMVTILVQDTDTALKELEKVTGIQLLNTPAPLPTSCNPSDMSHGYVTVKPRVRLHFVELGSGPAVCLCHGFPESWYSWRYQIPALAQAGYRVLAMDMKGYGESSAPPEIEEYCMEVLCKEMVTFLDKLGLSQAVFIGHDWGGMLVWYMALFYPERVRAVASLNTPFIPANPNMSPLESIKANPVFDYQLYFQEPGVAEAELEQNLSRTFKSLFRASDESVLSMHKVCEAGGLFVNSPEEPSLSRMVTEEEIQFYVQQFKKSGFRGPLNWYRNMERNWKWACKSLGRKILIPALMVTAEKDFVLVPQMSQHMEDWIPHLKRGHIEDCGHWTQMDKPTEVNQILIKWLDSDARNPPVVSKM

[3] = target: T3, Peroxisome proliferator-activated receptor delta (Homo sapiens, UniProt Q03181); assay: Transactivation of human PPARdelta expressed in African green monkey COS7 cells incubated overnight by dual-glo luciferase reporter gene assay; assay type: cell-based; conditions: cos-7
T3 sequence (Q03181 whole entry): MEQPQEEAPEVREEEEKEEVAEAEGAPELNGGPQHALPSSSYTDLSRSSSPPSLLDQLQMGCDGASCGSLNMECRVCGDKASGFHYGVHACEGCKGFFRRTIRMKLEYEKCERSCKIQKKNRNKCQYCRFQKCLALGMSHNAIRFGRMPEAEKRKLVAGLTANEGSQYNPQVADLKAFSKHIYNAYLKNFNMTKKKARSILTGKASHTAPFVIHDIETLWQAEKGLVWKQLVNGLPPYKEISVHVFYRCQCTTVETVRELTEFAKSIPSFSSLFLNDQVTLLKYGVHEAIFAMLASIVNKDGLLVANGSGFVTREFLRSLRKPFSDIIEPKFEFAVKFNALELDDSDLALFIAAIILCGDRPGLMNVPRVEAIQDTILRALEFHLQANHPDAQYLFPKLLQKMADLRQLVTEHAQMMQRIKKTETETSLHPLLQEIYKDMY

[4] = target: T4, Bifunctional epoxide hydrolase 2 (Homo sapiens) (UniProt P34913); assay: Inhibition of human recombinant sEH using PHOME as substrate at 10 uM preincubated for 30 mins followed by substrate addition measured for 30 mins by fluorescence-based assay
T4 sequence (whole entry): T2 sequence (P34913 whole entry)

[5] = target: T1, Peroxisome proliferator-activated receptor alpha (Homo sapiens); assay: Transactivation of human PPARalpha expressed in African green monkey COS7 cells incubated overnight by dual-glo luciferase reporter assay relative to GW7647; assay type: cell-based; conditions: COS-7
[6] = target: T5, Peroxisome proliferator-activated receptor alpha (Homo sapiens, UniProt Q07869); conditions: cos-7
T5 sequence (Q07869 whole entry): T1 sequence (whole entry)
Description: Transactivation of human PPARalpha expressed in African green monkey COS7 cells incubated overnight by dual-glo luciferase reporter gene assay

[7] = Solubility of the compound in water by microplate reader analysis; assay type: physicochemical
[8] = target: T6, Peroxisome proliferator-activated receptor delta (Homo sapiens) (UniProt Q03181); assay: Transactivation of human PPARdelta expressed in African green monkey COS7 cells at 10 uM incubated overnight by dual-glo luciferase reporter assay; assay type: cell-based; conditions: COS-7
T6 sequence (whole entry): T3 sequence (Q03181 whole entry)

Structure (SMILES) | Activity [1] | IC50 [2] | EC50 [3] | inhibition [4] | Emax [5] | EC50 [6] | solubility [7] | Emax [8]
CCOC(=O)C(CC)Cc1ccc(C(=O)NCc2ccc(C(F)(F)F)cc2)cc1 (stereo not drawn) | 22% | 570 nM | Not Active | – | – | – | – | –
CCC(Cc1ccc(C(=O)NCc2ccccc2)cc1)C(=O)O (stereo not drawn) | – | – | Not Active | 4% | inactive | Not Active | – | –
CCOC(=O)C(CC)Cc1ccc(C(=O)NCc2ccc(OC(F)(F)F)cc2)cc1 (stereo not drawn) | – | 900 nM | Not Active | – | – | – | – | –
CCOC(=O)C(C)Cc1ccc(C(=O)NCc2ccccc2C(F)(F)F)cc1 (stereo not drawn) | – | – | Not Active | – | inactive | Not Active | 7.5 µM (≈ 2.95 µg/mL) | inactive
O=C(NCc1ccccc1C(F)(F)F)c1ccc(C2CC2C(=O)O)cc1 (stereo not drawn) | – | – | Not Active | – | inactive | Not Active | – | inactive
CCOC(=O)C(CC)Cc1ccc(C(=O)NCc2ccc(OC)cc2C(F)(F)F)cc1 (stereo not drawn) | 22% | 30 nM | Not Active | – | – | – | – | –
CCOC(=O)C(CC)Cc1ccc(C(=O)NCc2ccccc2OC(F)(F)F)cc1 (stereo not drawn) | – | 30 nM | Not Active | – | inactive | Not Active | 75 µM (≈ 31.8 µg/mL) | –
CC/C(=C\c1ccc(C(=O)NCc2ccccc2C(F)(F)F)cc1)C(=O)O | – | – | Not Active | – | inactive | Not Active | – | inactive
CCOC(=O)C(CC)Cc1ccc(C(=O)NCc2ccccc2C)cc1 (stereo not drawn) | 15% | 900 nM | Not Active | – | – | – | – | –
CCC(Cc1ccc(C(=O)NCc2ccccc2OC(F)(F)F)cc1)C(=O)O (stereo not drawn) | – | – | Not Active | 23% | inactive | Not Active | 375 µM (≈ 148 µg/mL) | –
CCC(Cc1ccc(C(=O)NCc2ccc(OC(F)(F)F)cc2)cc1)C(=O)O (stereo not drawn) | – | 14000 nM | Not Active | – | – | – | – | –
CCC(Cc1ccc(C(=O)NCc2ccccc2Cl)cc1)C(=O)O (stereo not drawn) | – | – | Not Active | 20% | inactive | Not Active | – | –
CCOC(=O)C(CC)Cc1ccc(C(=O)NCc2ccc(F)cc2C(F)(F)F)cc1 (stereo not drawn) | – | 120 nM | Not Active | – | inactive | Not Active | – | –
O=C(O)CCc1ccc(C(=O)NCc2ccccc2C(F)(F)F)cc1 | – | – | Not Active | – | inactive | Not Active | 375 µM (≈ 132 µg/mL) | inactive
CCC(Cc1ccc(C(=O)NCc2ccc(OC)cc2)cc1)C(=O)O (stereo not drawn) | – | – | Not Active | 34% | inactive | Not Active | 375 µM (≈ 128 µg/mL) | –
CCOC(=O)C(CC)Cc1cccc(C(=O)NCc2ccccc2C(F)(F)F)c1 (stereo not drawn) | – | – | Not Active | – | inactive | Not Active | – | inactive
CCOC(=O)C(CC)Cc1ccc(C(=O)NCc2ccc(F)cc2)cc1 (stereo not drawn) | – | 2200 nM | Not Active | – | inactive | Not Active | – | –

Structure (SMILES) | Activity [1] | IC50 [2] | EC50 [3] | inhibition [4] | Emax [5] | EC50 [6] | solubility [7] | Emax [8]
CCOC(=O)C(CC)Cc1ccc(C(=O)NCc2ccc(OC)cc2)cc1 (stereo not drawn) | – | 620 nM | Not Active | – | inactive | Not Active | 7.5 µM (≈ 2.77 µg/mL) | –
CCOC(=O)CCc1ccc(C(=O)NCc2ccccc2C(F)(F)F)cc1 | – | – | Not Active | – | inactive | Not Active | 3.75 µM (≈ 1.42 µg/mL) | inactive
O=C(NCc1ccccc1C(F)(F)F)c1ccc(CC(C(=O)O)c2ccccc2)cc1 (stereo not drawn) | – | – | Not Active | – | inactive | Not Active | 75 µM (≈ 32.1 µg/mL) | inactive
CCOC(=O)C(Cc1ccc(C(=O)NCc2ccccc2C(F)(F)F)cc1)c1ccccc1 (stereo not drawn) | – | – | Not Active | – | inactive | Not Active | 3.75 µM (≈ 1.71 µg/mL) | inactive
CCOC(=O)C(CC)Cc1ccc(C(=O)NCc2ccccc2)cc1 (stereo not drawn) | – | 8500 nM | Not Active | – | inactive | Not Active | – | –
CCCC(Cc1ccc(C(=O)NCc2ccccc2C(F)(F)F)cc1)C(=O)O (stereo not drawn) | – | – | Not Active | – | inactive | Not Active | 375 µM (≈ 148 µg/mL) | inactive
CCC(Cc1ccc(C(=O)NCc2ccc(Cl)cc2)cc1)C(=O)O (stereo not drawn) | – | 1500 nM | Not Active | – | inactive | Not Active | 375 µM (≈ 130 µg/mL) | –
CCC(Cc1cccc(C(=O)NCc2ccccc2C(F)(F)F)c1)C(=O)O (stereo not drawn) | 34% | – | Not Active | – | – | – | – | inactive
CCC(Cc1ccc(C(=O)NCc2ccc(F)cc2C(F)(F)F)cc1)C(=O)O (stereo not drawn) | – | 1200 nM | Not Active | – | inactive | Not Active | – | –
CCC(Cc1ccc(C(=O)NCc2ccccc2Br)cc1)C(=O)O (stereo not drawn) | – | – | Not Active | 34% | inactive | Not Active | 375 µM (≈ 146 µg/mL) | –
CCOC(=O)C(CC)Cc1ccc(C(=O)NCc2ccc(Cl)cc2)cc1 (stereo not drawn) | – | 1700 nM | Not Active | – | inactive | Not Active | 7.5 µM (≈ 2.8 µg/mL) | –
CCC(Cc1ccc(C(=O)NCc2ccccc2C)cc1)C(=O)O (stereo not drawn) | – | – | Not Active | 25% | inactive | Not Active | – | –
CCOC(=O)/C(=C/c1ccc(C(=O)NCc2ccccc2C(F)(F)F)cc1)CC | – | – | Not Active | – | inactive | Not Active | – | inactive
CCCC(Cc1ccc(C(=O)NCc2ccccc2C(F)(F)F)cc1)C(=O)OCC (stereo not drawn) | – | – | Not Active | – | inactive | Not Active | 3.75 µM (≈ 1.58 µg/mL) | inactive
CCOC(=O)C(CC)Cc1ccc(C(=O)NCc2ccccc2Cl)cc1 (stereo not drawn) | – | 3800 nM | Not Active | – | inactive | Not Active | – | –
CCC(Cc1ccc(C(=O)NCc2ccc(F)cc2)cc1)C(=O)O (stereo not drawn) | – | – | Not Active | 28% | inactive | Not Active | – | –
CC(Cc1ccc(C(=O)NCc2ccccc2C(F)(F)F)cc1)C(=O)O (stereo not drawn) | – | – | Not Active | – | inactive | Not Active | 375 µM (≈ 137 µg/mL) | inactive
